In US20030013660A1, “Dioxolane analogs for improved inter-cellular delivery” (Shire BioChem Inc., priority 2000, published 2003):
Where “and” joins values, the source holds several entries; their conditions need not be identical. Identical values can stand only once.

What was measured:
SF-268 [1] = assay: 3H-TdR incorporation at 72 hr (24 hr drug exposure, wash, 48 hr); assay type: cell-based, Human; settings: Homo sapiens, SF-268, read-out: IC50 in μM (3H-TdR incorporation at 72 hr) SF-268 24 h, SF-268 Human Central Nervous System Tumor; 24 h drug exposure, 72 hr assay
Description: (§1) Exposition of 24 hr to drug, wash, incubated for another 48 hr (total of 72 hr assay)
(§2) (3H-Thymidine Incorporation Assay)

H-460 [2] = assay: as above; assay type: cell-based, Human; settings: Homo sapiens, NCI-H460, read-out: IC50 in μM (3H-TdR incorporation at 72 hr) H-460 24 h, H-460 Human Lung Carcinoma, 72 hr assay
Description: as §1, §2

MCF-7 [3] = assay: as above; assay type: cell-based, Human; settings: Homo sapiens, MCF7, read-out: IC50 in μM (3H-TdR incorporation at 72 hr) MCF-7 24 h, MCF-7 Human Breast Carcinoma, 72 hr assay
Description: as §1, §2

CEM/dCK- [4] = assay: as above; assay type: cell-based; settings: for IC50: Homo sapiens, CCRF-CEM, read-out: IC50 in μM (3H-TdR incorporation at 72 hr) CEM/dCK- 24 h, CCRF-CEM deoxycytidine kinase-deficient, 24 h drug exposure, 72 hr assay; for Factor* (Resistance Factor = Ratio of dCK- on Wild-type CCRF-CEM): ratio of IC50 CEM/dCK- to IC50 CCRF-CEM
Description: as §1, §2

CCRF-CEM [5] = assay: as above; assay type: cell-based; settings: read-out: IC50 in μM (3H-TdR incorporation at 72 hr) CCRF-CEM 24 h, CCRF-CEM T-cell Leukemia, 72 hr assay
Description: as §1, §2

CEM/dCK- [6] = assay: MTT or WST-1 assay at 72 hr (24 hr drug exposure, wash, 48 hr); assay type: cell-based
Description: (§3) Exposition of 24hr to drug, washed, and incubated for another 48hr (total of 72hr assay)

MCF-7 [7] = assay: MTT assay at 72 hr (24 hr drug exposure, wash, 48 hr); assay type: cell-based
Description: as §3

SF-268 [8] = assay: 3H-TdR (3H-thymidine) incorporation assay at 72 hr; assay type: cell-based, Human; settings: Homo sapiens, SF-268, read-out: IC50 SF-268 24 h, 24 h drug exposure, wash, another 48 hr; 3H-TdR incorporation at 72 hr
H-460 [9] = assay: 3H-TdR (3H-thymidine) incorporation assay at 72 hr; assay type: cell-based, Human; settings: Homo sapiens, NCI-H460, read-out: IC50 H-460 24 h, 24 h drug exposure, wash, another 48 hr; 3H-TdR incorporation at 72 hr
CCRF-CEM [10] = assay: MTT or WST-1 assay at 72 hr (24 hr drug exposure, wash, 48 hr); assay type: cell-based
Description: as §3

CEM/dCK- [11] = assay: 3H-TdR (3H-thymidine) incorporation assay at 72 hr; assay type: cell-based
Description: (§4) Table of IC50 Values (μM) for Controls
as §1, §2

CCRF-CEM [12] = assay: 3H-TdR (3H-thymidine) incorporation assay at 72 hr; assay type: cell-based; settings: Homo sapiens, CCRF-CEM, read-out: IC50 CCRF-CEM 24 h, 24 h drug exposure, wash, another 48 hr; 3H-TdR incorporation at 72 hr
Description: as §4, §1, §2

MCF-7 [13] = assay: 3H-TdR (3H-thymidine) incorporation assay at 72 hr; assay type: cell-based, Human; settings: Homo sapiens, MCF7, read-out: IC50 MCF-7 24 h, 24 h drug exposure, wash, another 48 hr; 3H-TdR incorporation at 72 hr
H-460 [14] = assay: MTT assay at 72 hr (24 hr drug exposure, wash, 48 hr); assay type: cell-based
Description: as §3

SF-268 [15] = assay: as above; assay type: cell-based
Description: as §3

[16] = read-out: IC50 CEM/dCK- 24 h, MMT or WST-1 at 72 hr, 24 h exposure, single experiment
[17] = Homo sapiens, CCRF-CEM, read-out: IC50 CCRF-CEM 24 h, MMT or WST-1 at 72 hr, 24 h exposure, single experiment
[18] = read-out: IC50 CCRF-CEM 24 h, MMT or WST-1 at 72 hr, 24 h exposure, single experiment
[19] = Homo sapiens, NCI-H460, read-out: IC50 H-460 24 h, MTT at 72 hr, 24 h exposure, single experiment
[20] = read-out: IC50 H-460 24 h, MTT at 72 hr, 24 h exposure, single experiment
[21] = Homo sapiens, SF-268, read-out: IC50 SF-268 24 h, MTT at 72 hr, 24 h exposure, single experiment
[22] = read-out: IC50 SF-268 24 h, MTT at 72 hr, 24 h exposure, single experiment
[23] = read-out: IC50 CEM/dCK- 24 h; MMT or WST-1 at 72 hr, 24 h exposure, single experiment

Row | SMILES | IC50 (SF-268 [1]) [µM] | IC50 (H-460 [2]) [µM] | IC50 (MCF-7 [3]) [µM] | IC50 (CEM/dCK- [4]) [µM] | Factor* (Resistance Factor = Ratio of dCK- on Wild-type CCRF-CEM) (CEM/dCK- [4]) | IC50 (CCRF-CEM [5]; Homo sapiens, CCRF-CEM) [nM] | IC50 (CEM/dCK- [6]; [16]) [nM] | IC50 (CCRF-CEM [10]; [17]) [nM] | IC50 (H-460 [14]; [20]) | other results
1 | Nc1ccn([C@@H]2CO[C@H](COC(=O)C3(c4ccccc4)CC3)O2)c(=O)n1 [Compound 223, 1-PHENYL- CYCLOPROPANECARBOXYLIC ACID 4-(4-AMINO-2-OXO- 2H-PYRIMIDIN-1-YL)- [1,3]DIOXOLAN-2-YL METHYL ESTER] | 0.25 | 0.035 | 0.15 | > 100 | >1613 | 62 | > 100000 |  |  | IC50 (MCF-7 [7]; Homo sapiens, MCF7, read-out: IC50 MCF-7 24 h, MTT at 72 hr, 24 h exposure, single experiment): 1700 nM; IC50 (MCF-7 [7]; read-out: IC50 MCF-7 24 h, MTT at 72 hr, 24 h exposure, single experiment): 2100 nM and 1400 nM
2 | Nc1ccn([C@@H]2CO[C@H](COC(=O)C34CC5CC(CC(C5)C3)C4)O2)c(=O)n1 [Compound 110, ADAMANTANE-1-CARBOXYLIC ACID 4-(4-AMINO-2-OXO- 2H-PYRIMIDIN-1-YL)- [1,3]DIOXOLAN-2- YLMETHYL ESTER] |  |  |  |  |  |  |  | 3.4 |  | IC50 (SF-268 [8]): 4.9 nM; IC50 (H-460 [9]): 1 nM; IC50 (CCRF-CEM [10]; [18]): 2.5 nM and 4 nM; IC50 (CEM/dCK- [11]; Homo sapiens, CCRF-CEM, read-out: IC50 CEM/dCK- 24 h, 24 h drug exposure, wash, another 48 hr, deoxycytidine kinase-deficient CCRF-CEM): 4300 nM; Factor* (Resistance Factor = Ratio of dCK- on Wild-type CCRF-CEM) (CEM/dCK- [11]; ratio of IC50 CEM/dCK- to CCRF-CEM, 24 h): 3307; IC50 (CCRF-CEM [12]): 1.3 nM; IC50 (MCF-7 [13]): 10 nM
3 | CCCCCCCCCCCC(=O)Nc1ccn([C@@H]2CO[C@H](CO)O2)c(=O)n1 [Compound 208, DODECANOIC ACID [1-(2- HYDROXYMETHYL- [1,3]DIOXOLAN-4-YL)-2- OXO-1,2-DIHYDRO- PYRIMIDIN-4-YL]-AMIDE] |  |  |  |  |  | < 0.1 |  |  | 200 nM | IC50 (CCRF-CEM [5]): 0.052 nM; IC50 (H-460 [14]; [19]): 110 nM
4 | CCCCCCCC/C=C\CCCCCCCC(=O)Nc1ccn([C@@H]2CO[C@H](CO)O2)c(=O)n1 [Compound 219, OCTADEC-9-ENOIC ACID [1-(2-HYDROXYMETHYL- [1,3]DIOXOLAN-4-YL)-2- OXO-1,2-DIHYDRO- PYRIMIDIN-4-YL]-AMIDE] | 0.00012 | ≤ 0.0001 | ≤ 0.0001 | 2.1 |  |  |  | 18 |  | IC50 (CCRF-CEM [10]; [18]): 10 nM
5 | CC(C)C[C@H](NC(=O)[C@H](C)NC(=O)OC(C)(C)C)C(=O)Nc1ccn([C@@H]2CO[C@H](CO)O2)c(=O)n1 [Compound 263, (1-{1-[1-(2- HYDROXYMETHYL- [1,3]DIOXOLAN-4-YL)-2- OXO-1,2-DIHYDRO- PYRIMIDIN-4- YLCARBANOYL]-3-METHYL- BUTYLCARBAMOYL}-ETHYL)- CARBAMIC ACID TERT- BUTYL ESTER] |  |  |  |  |  |  | > 100000 | 19000 | > 100000 nM | IC50 (CCRF-CEM [10]; [18]): 14000 nM; IC50 (SF-268 [15]; [21]): > 100000 nM; IC50 (H-460 [14]; [19]): 66000 nM
6 | CCCCC[C@]12CC[C@](C(=O)OC[C@H]3OC[C@@H](n4ccc(N)nc4=O)O3)(CC1)CC2 [Compound 211, 4-PENTYL- BICYCLO[2.2.2]OCTANE-1- CARBOXYLIC ACID 4-(4- AMINO-2-OXO-2H- PYRIMIDIN-1-YL)- [1,3]DIOXOLAN-2-YL METHYL ESTER] |  |  |  |  |  | 0.027 |  |  |  | IC50 (CCRF-CEM [5]): 0.053 nM; IC50 (SF-268 [15]; [22]): 34 nM
7 | CC(CCCCCCc1ccccc1)C(=O)Nc1ccn([C@@H]2CO[C@H](CO)O2)c(=O)n1 (stereo partly drawn) [Compound 247, 2-Methyl-8-phenyl-octanoic acid [1-(2-hydroxymethyl-[1,3]dioxolan-4-yl)-2-oxo-1,2-dihydro-pyrimidin-4-yl]-amide] | 0.13 | 0.13 | 0.00078 | 15 | 150 | 100 | 61000 |  | 540 nM and 460 nM | IC50 (CEM/dCK- [6]; [23]): 49000 nM; IC50 (H-460 [14]; [19]): 390 nM
8 | CC(=O)Oc1ccc(COC(=O)Nc2ccn([C@@H]3CO[C@H](COC(=O)OCc4ccc(OC(C)=O)cc4)O3)c(=O)n2)cc1 [Compound 202, Acetic acid 4-(1-{2-[4-(Acetyloxy)benzyloxycarbonyloxymethyl]-[1,3]dioxolan-4-yl}2-oxo-1,2-dihydropyrimidin-4-ylcarbamoyloxymethyl)-phenyl Ester] |  |  | < 0.0001 |  | >1000 | < 0.1 | 50 | 14 |  | Resistance Factor* (CEM/dCK- [6]; CEM/dCK- versus CCRF-CEM, single experiment): >7; IC50 (CEM/dCK- [6]; [23]): > 100 nM
9 | CCCCC[C@H]1CC[C@H](C(=O)Nc2ccn([C@@H]3CO[C@H](CO)O3)c(=O)n2)CC1 [Compound 239, 4-PENTYL- CYCLOHEXANECARBOXYLIC ACID [1-(2- HYDROXYMETHYL- [1,3]DIOXOLAN-4-YL)-2- OXO-1,2-DIHYDRO- PYRIMIDIN-4-YL]-AMIDE] | 0.19 | 0.0065 | 0.00033 | 20 | 6667 | 3 | 20000 |  | 200 nM | IC50 (CEM/dCK- [6]; [23]): 28000 nM and 17000 nM
10 | CCCCC[C@]12CC[C@](C(=O)Nc3ccn([C@@H]4CO[C@H](CO)O4)c(=O)n3)(CC1)CC2 [Compound 210, 4-Pentyl-Bicyclo[2.2.2]Octane-1-Carboxylic Acid [1-(2-Hydroxymethyl-[1,3]Dioxolan-4-Yl)-2-Oxo-1,2-Dihydro-Pyrimidin-4-Yl]-Amide] | 0.26 | 0.0026 | 0.005 | > 100 |  |  |  |  |  | IC50 (SF-268 [15]; [21]): ≥ 100000 nM; IC50 (SF-268 [15]; [22]): > 100000 nM and 51000 nM
11 | O=C(CCCCCCCc1ccccc1)Nc1ccn([C@@H]2CO[C@H](COC(=O)CCCCCCCc3ccccc3)O2)c(=O)n1 [Compound 196, 8-PHENYL-OCTANOIC ACID 4-[2-OXO-4-(8-PHENYL- OCTANOYLAMINO)-2H- PYRIMIDIN-1-YL]- [1,3]DIOXOLAN-2-YL METHYL ESTER] | < 0.0001 | < 0.0001 | < 0.0001 |  |  |  |  | 10 |  | 
